Among the data in patent US6900194B1, “Use of substituted 4-biarylbutyric and 5-biarylpentanoic acid derivatives as matrix metalloprotease inhibitors for the treatment of respiratory diseases” (Bayer Aktiengesellschaft, priority 1998, dated 2005) are IC50 values, retold here.

Experiment [1] has as its target T1, MMP-12 (Macrophage Elastase) (Homo sapiens, UniProt P39900).
T1 construct: made in house; host or cells: E. coli BL21 (DE3)
The experiment in a line: P218 quenched fluorescence assay, MMP-12. The settings on record: table 3. The format is biochemical. The text has this: P218 Quenched Fluorescence Assay for MMP Inhibition:
This assay is adapted from the one described by Knight et al., FEBS Letters, 296, 263-266 (1992) for MMP-3 and a related substrate. The rate of hydrolysis of the synthetic substrate H-MCA-Pro-Lys-Pro-Leu-Ala-Leu-DPA-Ala-Arg-NH2 (P218) by the respective MMPs is monitored fluorometrically, using an excitation wavelength of 340 nm and an emission wavelength of 395 nm, in the presence or absence of the test compounds. The substrate is made up initially in 100% DMSO to a concentration of 1×10^−2 M, then diluted in assay buffer to a final concentration of 20 μM. Test compounds (10 mM in DMSO) are diluted in assay buffer at an initial concentration of 0.3-1000 nM. These are diluted to a final concentration in the assay from 0.03 nM to 100 nM. The reaction is initiated by the addition of substrate at a final concentration of 20 μM. The total assay volume in a 96 well microtitre plate is 150 μl, Cleavage of the substrate between the Leu-Ala residues allows the fluorescence of the MCA group to be detected on a fluorometer (Cytofluor II) following excitation at 340 nm and emission at 395 nm. Change in fluorescence is continually monitored for a 40 min period.
The Ki's are calculated using the method described by Williams and Morrison, Methods in Enzymology, 63, 437-467 (1979) to measure Ki apparent for tight binding inhibitors, and is summarised as follows: [I]0/(1−vi/v0)=Ki apparent ×vi/v0+[E]0 [I]0 and [E]0 are inhibitor and enzyme concentrations, and vi/v0 are reaction velocities with/without inhibitor. [I]0 is equal to IC50 when vi is half v0, so that: IC50=0.5×[E]0+Ki apparent
IC50's are determined at each enzyme concentration using Xlfit software. Ki apparent is then determined graphically from the plot of IC50 versus MMP concentration, using the intercepts to estimate Ki apparent. Thus, intercept values at IC50=0 and [E]0=0 are equal to −2×Ki apparent and Ki apparent, respectively. IC50 values are calculated using % inhibition values at each enzyme concentration, ensuring data is taken from the linear part of the reaction rate curves. The Ki can then be calculated from the equation: Ki=Ki apparent/[…] where S=substrate concentration and Km=dissociation constant.
The assay conditions are modified as follows for each of the MMPs used:
MMP-12 (Macrophage Elastase)
[…] is isolated according to the following procedure: Human GenePool cDNA libraries from human lung, spleen, and brain were obtained from Invitrogen (Groningen, The Netherlands). HPLC-purified oligonucleotides were purchased from BioTez (Berlin, Germany), E. coli strain DH5α from Life Technologies (Heidelberg, Germany), strain BL21(DE3) from Novagen (Heidelberg, Germany). Pfu DNA-Polymerase and pBlueScriptII-KS(+) were from Stratagene (Heidelberg, Germany). DNA plasmid and DANN gel isolation kits were purchased from Qiagen (Hilden, Germany). All restriction enzymes and DNA modifying enzymes were ordered from New England Biolabs (Schwalbach, Germany). HiTrapQ (5 ml) was from Pharmacia Biotech (Freiburg, Germany). Vydac C4-RP HPLC columns (214TP54: 300 Å, 5 μm, 4.6×250 mm; 214TP1022: 300 Å, 10 μm, 22×250 mm) were from Promochem (Wesel, Germany). Fluorogenic substrate P218 was purchased from Polypeptide Laboratories (Wolfenbüttel, Germany). Ultrapure urea was purchased from Schwarz-Mann (Cleveland, Ohio). Ready-to-use NuPAGE 10% Bis-Tris Polyacrylamide SDS-PAGE gels and NuPAGE 20×MOPS running buffer were obtained from Novex (Frankfurt/Main, Germany) 10% AMPA and all other chemicals were from Sigma (Deisenhofen, Germany). […]

Experiment [2] deals with Murine peritoneal macrophages. As to conditions: read-out: IC50, inhibition of trafficking of murine peritoneal macrophages across artificial basement membrane; Matrigel; murine MCP-1 5 ng/ml; 48-98 h. As to the method: (§1) In vitro Functional Tests • 1. Human alveolar macrophages • Human alveolar macrophages were obtained by bronchoscopy of healthy smoking volunteers. Cells were spun and resuspended at 2×10^6/ml. Trafficking of alveolar macrophages (+or −lipopolysaccharide 2.5 μg.ml) across an artificial basement membrane (Matrigel) was induced by human MCP-1 (5 ng/ml) over a 48-98 h period. […] Murine peritoneal macrophages • Murine macrophages were obtained from mice 5 days after an intraperitoneal injection of thioglycollate. Cells were spun and resuspended at 2×10^6/ml. Trafficking of peritoneal macrophages across an artificial basement membrane (Matrigel) was induced by murine MCP-1 (5 ng/ml) over a 48-98 h period. […] LPS Induced TNFα Production in Mice

Experiment [3] relates to Human alveolar macrophages. As to conditions: read-out: IC50, inhibition of MCP-1-induced trafficking of human alveolar macrophages across artificial basement membrane; Matrigel; human MCP-1 5 ng/ml; 48-98 h; + or − lipopolysaccharide. How it is done:
as §1

T1 sequence (P39900 106-470): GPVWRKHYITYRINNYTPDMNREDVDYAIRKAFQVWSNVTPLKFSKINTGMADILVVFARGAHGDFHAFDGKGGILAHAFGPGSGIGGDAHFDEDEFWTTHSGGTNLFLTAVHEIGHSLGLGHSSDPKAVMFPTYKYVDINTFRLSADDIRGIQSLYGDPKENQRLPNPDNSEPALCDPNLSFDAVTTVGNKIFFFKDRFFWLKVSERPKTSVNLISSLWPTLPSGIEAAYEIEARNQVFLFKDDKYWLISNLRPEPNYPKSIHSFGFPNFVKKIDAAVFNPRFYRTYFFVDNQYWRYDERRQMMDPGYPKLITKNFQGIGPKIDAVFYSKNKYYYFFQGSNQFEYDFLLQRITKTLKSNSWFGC

By IC50 is commonly meant the concentration needed to halve the response being measured. Take `CCCOc1ccc2c(c1)C(=O)N(CCC(CC(=O)c1ccc(-c3ccc(Cl)cc3)cc1)C(=O)O)C2=O` (stereo not shown) [C-V]: the IC50 in experiment [1] is 1.7 nM.

For `CCCCCOc1ccc(-c2ccc(C(=O)CC(CCN3C(=O)c4ccccc4C3=O)C(=O)O)cc2)cc1` (stereo not shown) [C-III], the IC50 in experiment [1] was found to be 2.8 nM.

In experiment [1], `O=C(O)[C@H]1[C@H](CN2C(=O)c3cc4ccccc4cc3C2=O)CC[C@@H]1C(=O)c1ccc(-c2ccc(Cl)cc2)cc1` (racemic) [C-XVIII] had an IC50 of 1 nM.

As to `O=C(c1ccc(-c2ccc(Cl)cc2)cc1)C1CCC(CN2C(=O)c3ccccc3C2=O)C1C(=O)O` (stereo not drawn) [(1α,2β,5β)-2-{[4′-chloro(1,1′-biphenyl)-4-yl]carbonyl}-5-[(1,3-dihydro-1,3-dioxo-2H-isoindol-2-yl)methyl]-cyclopentane carboxylic acid], the IC50 in experiment [2] and in experiment [3] was ≤ 1000 nM throughout.

The compound `O=C(O)[C@H]1[C@H](CN2C(=O)c3cc(Cl)c([N+](=O)[O-])cc3C2=O)CC[C@@H]1C(=O)c1ccc(-c2ccc(Cl)cc2)cc1` (racemic) [C-XXX] yielded an IC50 in experiment [1] of 4.5 nM.

On to `O=C(CC(CCN1C(=O)c2ccccc2C1=O)C(=O)O)c1ccc(-c2ccc(OCc3ccccc3)cc2)cc1` (stereo not shown) [C-XXII], for which the half-maximal inhibitory concentration (IC50) in experiment [1] is 1.6 nM.
